Source: ChEMBL document CHEMBL1201862, “PubChem BioAssay data set” (2004)
Counter-ions that a name gives are not always drawn. Calls of active or inactive are those of the source.

Assays:
Paired box protein Pax-8 = Paired box protein Pax-8 (Homo sapiens, UniProt Q06710); assay: PAX8 transcriptional activity inhibition in RMG-I – RMG-I cells, luciferase, cherry-pick, dose response (AID 687027); format: functional, cell-based;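 note: luciferase reporter driven by Pax8 target thyroperoxidase promoter measured by SteadyGlo luminescence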
Chain of Paired box protein Pax-8 (Q06710 whole entry): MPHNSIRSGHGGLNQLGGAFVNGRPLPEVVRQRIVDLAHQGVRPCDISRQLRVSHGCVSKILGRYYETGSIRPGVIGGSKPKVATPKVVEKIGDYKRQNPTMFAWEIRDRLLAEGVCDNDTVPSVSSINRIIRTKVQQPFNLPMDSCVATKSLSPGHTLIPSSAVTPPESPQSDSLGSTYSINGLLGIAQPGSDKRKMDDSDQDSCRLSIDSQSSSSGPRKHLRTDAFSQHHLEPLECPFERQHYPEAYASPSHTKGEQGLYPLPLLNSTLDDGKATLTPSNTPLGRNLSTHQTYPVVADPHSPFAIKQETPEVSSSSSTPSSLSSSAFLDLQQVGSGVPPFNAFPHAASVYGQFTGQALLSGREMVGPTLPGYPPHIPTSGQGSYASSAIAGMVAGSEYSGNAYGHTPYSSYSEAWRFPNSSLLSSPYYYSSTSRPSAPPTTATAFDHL

[1] = A2780 cell killing – plate reader, dry powder samples, cytotoxicity control, dose response (AID 743046); format: functional, cell-based
[2] = inhibitors of non-replicating M. tuberculosis, dose response, luciferase, dry powder (AID 651619); format: functional; settings: Mycobacterium tuberculosis
[3] = inhibitors of non-replicating M. tuberculosis, dose response, luciferase, dry powder (AID 651620); format: functional; settings: Mycobacterium tuberculosis
[4] = YAP1 overexpression rescue of CTGF inhibition – DLD1 cells, RT-qPCR, cherry-pick, mechanism study for YAP1 pathway inhibitor project, dose response (AID 1053127); format: functional, cell-based; settings: DLD-1
[5] = cytotoxicity in MITF-independent A375 cells – cell-based, CellTiter-Glo luminescence, dry powder, set 4, counter-screen for MITF inhibitor project, dose response (AID 624364); format: functional; settings: A-375;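 note: A375 melanoma cells are MITF independent so this is a counter screen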
[6] = viability loss in MITF-independent A375 cells – cell-based, CellTiter-Glo luminescence, dry powder, set 2, counter-screen for MITF inhibitor project, dose response (AID 624489); format: functional; settings: A-375;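 note: actives are compounds lowering A375 viability meaning general cytotoxicity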
[7] = SNU-C1 cell viability reduction, dose response, CellTiter-Glo luminescence (AID 1117323); format: functional, cell-based
[8] = Reduced DLD-1 viability, concentration-response, CellTiter-Glo luminescence (AID 1117352); format: functional
[9] = CellTiter-Glo luminescence survival assay, SW480 colon tumor line, concentration-response curve, half-maximal inhibitory concentration (AID 1117338); format: functional
[10] = cytotoxicity toward HCT116 cells – cell-based, CellTiter-Glo luminescence, IC50, dose response (AID 1117332); format: functional; settings: HCT-116
[11] = cytotoxicity toward HT-29 cells – cell-based, CellTiter-Glo luminescence, IC50, dose response (AID 1117330); format: functional
[12] = cytotoxicity toward Colo320 cells – cell-based, CellTiter-Glo luminescence, IC50, dose response (AID 1117334); format: functional; settings: COLO 320
[13] = RKO cell viability reduction, dose response, CellTiter-Glo luminescence (AID 1117322); format: functional
[14] = rise of 2N DNA cells, HeLa – IC50, dose response (AID 1117349); format: functional, cell-based
[15] = HCT116 cell viability decrease, GSK3B pretreatment – CellTiter-Glo, IC50, dose response (AID 1117339); format: functional; settings: HCT-116
[16] = rise of 4N DNA cells, HeLa – IC50, dose response (AID 1117351); format: functional, cell-based

Row | SMILES | IC50 [7] | IC50 [8] | IC50 [9] | IC50 [10] | IC50 [12] | IC50 [13] | other results
1 | CC(C)CC#Cc1ccc([C@@H]2[C@@H](CO)N3CCCCN(S(=O)(=O)c4ccc(F)cc4)C[C@H]23)cc1 | – | – | – | – | – | – | AC50 (Paired box protein Pax-8): 12.4 µM (active); AC50 [1]: 52.3 µM (active)
2 | Brc1cccc(-c2nnc(SCc3ccccn3)o2)c1 | – | – | – | – | – | – | IC90 [2]: 4 µM (active); IC90 [3]: 4 µM (active)
3 | O=C(Cc1ccncc1)N1CCCCN2[C@H](CO)[C@@H](c3ccc(C#Cc4ccccc4F)cc3)[C@H]2C1 | – | – | – | – | – | – | AC50 [4]: 15.1 µM (active)
4 | CC(C)(C)[S@@+]([O-])N1Cc2cc(C(=O)NCC(F)(F)F)nc(-c3cccc(-c4cccc(F)c4)c3)c2[C@H]1CCO | – | – | – | – | – | – | AC50 [4]: > 26 µM (inactive)
5 | COc1ccc(C2=C(N)C(=O)c3ccccc3C2=O)cc1 | – | – | – | – | – | – | AC50 [5]: > 70 µM (inactive); AC50 [6]: > 70 µM (inactive)
6 | O=c1sc2ccccc2c(O)c1C1CC(c2ccc(-c3ccc(Br)cc3)cc2)Cc2ccccc21 (centres undefined) | 0.252 µM (active) | 0.239 µM (active) | 0.187 µM (active) | 0.485 µM (active) | 0.735 µM (active) | 0.538 µM (active) | IC50 [11]: 0.436 µM (active)
7 | COc1ccc(C2=C(NC(C)=O)C(=O)c3ccccc3C2=O)cc1 | – | – | – | – | – | – | AC50 [5]: 13.4 µM (active); AC50 [6]: 8.33 µM (active)
8 | COc1cc(NC(C)CCCN)c2ncccc2c1 (centres undefined) [PRIMAQUINE] | > 20 µM (inactive) | > 20 µM (inactive) | > 20 µM (inactive) | 1.88 µM (active) | > 20 µM (inactive) | > 20 µM (inactive) | IC50 [14]: > 10 µM (inactive); IC50 [15]: > 20 µM (inactive); IC50 [16]: > 10 µM (inactive)
9 | O=C(CCCN1CCC(O)(c2cccc(C(F)(F)F)c2)CC1)c1ccc(F)cc1 [TRIFLUPERIDOL HYDROCHLORIDE] | > 20 µM (inactive) | > 20 µM (inactive) | > 20 µM (inactive) | > 20 µM (inactive) | > 20 µM (inactive) | > 20 µM (inactive) | IC50 [15]: > 20 µM (inactive); IC50 [11]: > 20 µM (inactive)
